≈ marks a conversion by molar mass, not a printed value. Counter-ions that a name gives are not always drawn. Like-named read-outs stand apart in the source and are kept apart here.
Columns and labels:
[1] = system: A. baumannii F19521; assay: MIC, micro-dilution broth method; assay type: cell-based; settings: Acinetobacter baumannii
Description: (§1) Compounds were evaluated against a panel of Gram-positive and Gram-negative organisms. MIC values were determined using the micro-dilution broth method as outlined by the Clinical and Laboratory Standards Institute (clsi.org/) and are listed in […]. All experiments were performed in biological triplicate.
(§2) Antimicrobial susceptibility tests. Susceptibility testing was performed in biological triplicate, using the micro-dilution broth method as outlined by the Clinical and Laboratory Standards Institute. Bacteria were cultured with cation-adjusted Muller-Hinton broth (Sigma-Aldrich, Cat #90922) in round-bottom 96-well plates (Corning, Cat #3788). Human serum (pooled gender, 0.2 μm filtered) was purchased from BioIVT (Hicksville, NY).

[2] = system: A. baumannii KB304; assay: MIC, micro-dilution broth method; assay type: cell-based; settings: Acinetobacter baumannii
Description: as §1, §2

[3] = system: A. baumannii WO22; assay: MIC, micro-dilution broth method; assay type: cell-based; settings: Acinetobacter baumannii
Description: as §1, §2

[4] = system: E. cloacae ATCC 29893; assay: MIC, micro-dilution broth method; assay type: cell-based; settings: Enterobacter cloacae, ATCC29893
Description: as §1, §2

[5] = system: E. coli AR-0493; assay: MIC, micro-dilution broth method; assay type: cell-based; settings: Escherichia coli, AR0493
Description: as §1, §2

[6] = system: E. coli AR-0495; assay: MIC, micro-dilution broth method; assay type: cell-based; settings: Escherichia coli, AR0495
Description: as §1, §2

[7] = system: E. coli BAA-2340; assay: MIC, micro-dilution broth method; assay type: cell-based; settings: Escherichia coli, BAA2340
Description: as §1, §2

[8] = system: E. coli M66623; assay: MIC, micro-dilution broth method; assay type: cell-based; settings: Escherichia coli
Description: as §1, §2

[9] = system: K. pneumoniae AR-0347; assay: MIC, micro-dilution broth method; assay type: cell-based; settings: Klebsiella pneumoniae, AR0347
Description: as §1, §2

[10] = system: K. pneumoniae BAA-2470; assay: MIC, micro-dilution broth method; assay type: cell-based; settings: Klebsiella pneumoniae, BAA2470
Description: as §1, §2

[11] = system: K. pneumoniae M67297; assay: MIC, micro-dilution broth method; assay type: cell-based; settings: Klebsiella pneumoniae
Description: as §1, §2

[12] = system: K. pneumoniae S20595; assay: MIC, micro-dilution broth method; assay type: cell-based; settings: Klebsiella pneumoniae
Description: as §1, §2

[13] = system: P. aeruginosa PA01; assay: MIC, micro-dilution broth method; assay type: cell-based; settings: Pseudomonas aeruginosa
Description: as §1, §2

[14] = system: E. coli BAA-2469; assay: Bioactivity against exemplary strains of bacteria (Table 5A); assay type: cell-based; parameters: unit not given here; settings: Strain 2: E. coli BAA-2469
[15] = system: A. baumannii BAA-2093; assay: as above; assay type: cell-based; settings: Strain 3: A. baumannii BAA-2093
[16] = system: K. pneumoniae BAA-2146; assay: as above; assay type: cell-based; settings: Strain 4: K. pneumoniae BAA-2146
[17] = system: E. coli strains with intact outer membranes; assay: MIC, micro-dilution broth method (text summary); assay type: cell-based; settings: Escherichia coli
Description: FIG. 2. Antimicrobial activity of Debio-1452 and derivatives. MIC values were determined using the micro-dilution broth method as outlined by the Clinical and Laboratory Standards Institute (clsi.org/). All experiments were performed in biological triplicate.
as §2

[18] = target: E. coli FabI (Escherichia coli, UniProt P0AEK4); assay: In vitro FabI inhibition assay; assay type: biochemical; settings: 20 nM enzyme
Description: Expression and purification of E. coli FabI. E. coli BL21 (DE3) pLysS (Novagen) were transformed with pET15-ecFabI. Overnight culture (10 mL) in LB supplemented with 50 μg/mL ampicillin from single colony was diluted into 1 L LB+50 μg/mL ampicillin. Cells were grown at 37° C., 250 rpm until OD600 reached 0.8. Culture was cooled to 18° C. and induced with 0.5 mM IPTG for 18 h at 18° C. Cells were harvested by centrifugation (5,000×g, 10 min, 4° C.). Cell pellets were flash frozen and store at −20° C. pending purification. Frozen cell pellets were thawed on ice and resuspended (5 mL per gram wet pellet, typically 20-30 mL) with 0.5% CHAPS, 1 mM PMSF, 1 μg/mL leupeptin, 1 μg/mL pepstatin A, and 2 μg/mL aprotinin in binding buffer [20 mM Tris (pH 7.9), 500 mM NaCl, 5 mM imidazole]. Cells were lysed by sonication on ice (30%, 10 s pulse, 20 s rest, 5 min total). Lysate was clarified by centrifugation (35,000×g, 1 h, 4° C.) and filtration through 0.2 μm syringe filter. Lysate was incubated with 5 mL Co-NTA agarose (HisPur cobalt resin, Thermo-Fisher Scientific Cat #89965, pre-equilibrated with binding buffer) for 30 min at 4° C. with gentle rocking. Agarose-containing lysate was transferred to column and flow through discarded. Column was washed with 2 column volumes of binding buffer followed by 10 column volumes of wash buffer [20 mM Tris (pH 7.9), 500 mM NaCl, 60 mM imidazole]. Protein was eluted with 15 mL elution buffer [20 mM Tris (pH 7.9), 500 mM NaCl, 300 mM imidazole]. […] Protein concentration was determined by BCA assay (ThermoFisher Cat #23227).
In vitro FabI inhibition assay. […] Plate was placed in plate-reader (SpectraMax 190, Molecular Devices) under temperature control (25° C.), and temperature was allowed to equilibrate. […] After shaking for 5 s, reaction progress was monitored by absorbance at 340 nm every 15 s for 90 min. Linear portion of reaction progress curve was fit using plate-reader software (SoftMax Pro 7.0). Percent activity was calculated relative to DMSO-only and no-enzyme controls in each plate. […]

Chain of E. coli FabI (P0AEK4 whole entry): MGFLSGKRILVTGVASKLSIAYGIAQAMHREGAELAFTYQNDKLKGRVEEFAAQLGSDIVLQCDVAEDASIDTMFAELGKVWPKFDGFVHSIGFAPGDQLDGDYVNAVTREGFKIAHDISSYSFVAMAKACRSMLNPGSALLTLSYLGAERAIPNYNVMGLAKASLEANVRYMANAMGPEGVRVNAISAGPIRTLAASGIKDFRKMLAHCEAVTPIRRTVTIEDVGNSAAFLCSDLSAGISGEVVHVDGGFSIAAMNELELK

Cc1c(CN(C)C(=O)/C=C/c2cnc3c(c2)CCC(=O)N3)oc2ccccc12 [Debio-1452, (E)-N-methyl-N-((3-methylbenzofuran-2-yl)methyl)-3-(7-oxo-5,6,7,8-tetrahydro-1,8-naphthyridin-3-yl)acrylamide, reference compound]
MIC ([1]; A. baumannii F19521, read-out: MIC): > 32 µg/mL
MIC ([2]; A. baumannii KB304, read-out: MIC): > 32 µg/mL
MIC ([3]; A. baumannii WO22, read-out: MIC): > 32 µg/mL
MIC ([4]; E. cloacae ATCC 29893, read-out: MIC): > 32 µg/mL
MIC ([5]; E. coli AR-0493, read-out: MIC): > 32 µg/mL
MIC ([6]; E. coli AR-0495, read-out: MIC): 8 µg/mL (≈ 21.3 µM)
MIC ([7]; E. coli BAA-2340, read-out: MIC): > 32 µg/mL
MIC ([8]; E. coli M66623, read-out: MIC): > 32 µg/mL
MIC ([9]; K. pneumoniae AR-0347, read-out: MIC): > 32 µg/mL
MIC ([10]; K. pneumoniae BAA-2470, read-out: MIC): 8 µg/mL (≈ 21.3 µM)
MIC ([11]; K. pneumoniae M67297, read-out: MIC): > 32 µg/mL
MIC ([12]; K. pneumoniae S20595, read-out: MIC): > 32 µg/mL
MIC ([13]; P. aeruginosa PA01, read-out: MIC): > 32 µg/mL
Bioactivity [14]: >32
Bioactivity [15]: 16
Bioactivity [16]: >32
MIC ([17]; E. coli strains with intact outer membranes, read-out: MIC): > 32 µg/mL
inhibition of E. coli FabI in vitro (in words) [18]: potent FabI inhibitors

Cc1c(CN(C)C(=O)/C=C/c2cnc3c(c2)CC(N)C(=O)N3)oc2ccccc12 (stereo not drawn) [Debio-1452-NH3, (E)-3-(6-amino-7-oxo-5,6,7,8-tetrahydro-1,8-naphthyridin-3-yl)-N-methyl-N-((3-methylbenzofuran-2-yl)methyl)acrylamide hydrochloride]
MIC ([1]; F19521): 4 µg/mL
MIC ([2]; KB304): 64 µg/mL
MIC ([3]; WO22): 64 µg/mL
MIC [4]: 8 µg/mL
MIC [5]: 4 µg/mL
MIC [6]: 4 µg/mL
MIC [7]: 4 µg/mL
MIC ([8]; M66623): 8 µg/mL
MIC [9]: 16 µg/mL
MIC [10]: 4 µg/mL
MIC ([11]; M67297): 32 µg/mL
MIC ([12]; S20595): 16 µg/mL
MIC ([13]; PA01): > 64 µg/mL
Bioactivity [14]: 4
Bioactivity [15]: 4
Bioactivity [16]: 32
MIC [17]: 4 µg/mL
inhibition of E. coli FabI in vitro (in words) [18]: potent FabI inhibitors
